Measured values taken from patent US10508120B2, “TYK2 inhibitors and uses thereof” (Nimbus Lakshmi, Inc., priority 2017, dated 2019).
Like-named read-outs stand apart in the source and are kept apart here.

Key:
[1] = molecular target: human TYK2 (JH2domain-pseudokinase) (Homo sapiens (Human), UniProt P29597); assay: TYK2 JH2 Domain Binding Assay (KINOMEscan)
How it was run: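 Displacement of a DNA-tagged TYK2 JH2 fusion (human, aa G556–D888, HEK293 extract, <0.1 nM) from ligand-coated beads over 1 h at RT; binding buffer PBS/0.05% Tween 20/10 mM DTT/0.1% BSA.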

[2] = molecular target: Tyk2/JAK2 (heterodimeric complex) (Homo sapiens (Human), UniProt P29597); assay: IL-12 Induced pSTAT4 in Human PBMC; assay type: cell-based; conditions: 1.7 ng/mL IL-12
Tyk2/JAK2 (heterodimeric complex), sequence (P29597 whole entry, other chains not shown): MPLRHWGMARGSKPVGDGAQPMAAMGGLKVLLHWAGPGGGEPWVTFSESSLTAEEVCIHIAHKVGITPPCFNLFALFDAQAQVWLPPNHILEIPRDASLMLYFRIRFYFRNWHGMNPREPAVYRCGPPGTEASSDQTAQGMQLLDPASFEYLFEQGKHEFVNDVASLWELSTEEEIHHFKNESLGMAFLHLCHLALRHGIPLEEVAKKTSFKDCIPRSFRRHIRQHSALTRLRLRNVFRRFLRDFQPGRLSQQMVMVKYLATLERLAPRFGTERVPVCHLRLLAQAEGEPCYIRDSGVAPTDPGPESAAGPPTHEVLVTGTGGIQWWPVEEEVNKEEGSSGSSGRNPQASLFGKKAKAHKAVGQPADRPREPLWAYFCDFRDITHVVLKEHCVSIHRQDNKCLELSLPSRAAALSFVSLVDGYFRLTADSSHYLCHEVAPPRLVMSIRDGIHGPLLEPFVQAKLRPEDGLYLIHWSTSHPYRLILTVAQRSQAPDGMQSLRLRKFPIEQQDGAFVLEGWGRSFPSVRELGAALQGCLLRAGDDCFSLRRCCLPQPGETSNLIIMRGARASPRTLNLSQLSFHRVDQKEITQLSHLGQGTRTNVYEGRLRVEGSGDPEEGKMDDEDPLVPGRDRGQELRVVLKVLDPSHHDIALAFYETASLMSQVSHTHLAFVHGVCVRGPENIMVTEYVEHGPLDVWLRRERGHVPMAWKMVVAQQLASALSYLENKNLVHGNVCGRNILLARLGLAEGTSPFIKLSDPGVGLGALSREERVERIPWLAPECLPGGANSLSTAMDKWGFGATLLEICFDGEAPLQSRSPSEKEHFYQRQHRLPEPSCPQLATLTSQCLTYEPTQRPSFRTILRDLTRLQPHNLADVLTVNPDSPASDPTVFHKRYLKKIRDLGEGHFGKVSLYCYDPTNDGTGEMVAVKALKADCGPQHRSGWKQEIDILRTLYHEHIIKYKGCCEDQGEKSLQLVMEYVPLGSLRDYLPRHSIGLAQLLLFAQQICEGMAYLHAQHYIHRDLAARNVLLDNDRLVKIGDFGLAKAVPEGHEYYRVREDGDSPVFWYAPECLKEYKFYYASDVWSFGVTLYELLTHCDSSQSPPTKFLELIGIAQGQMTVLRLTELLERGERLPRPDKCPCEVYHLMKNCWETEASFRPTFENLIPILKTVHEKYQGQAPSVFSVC
Text: The IL-12 Induced pSTAT4 assay evaluates the inhibition of IL-12 induced STAT4 phophorylation mediated by Tyk2/JAK2 (heterodimeric complex).

JAK2 kinase domain (JH1) = JAK2 kinase domain (JH1) (Homo sapiens (Human), UniProt O60674); assay: JAK2 Radioactive Kinase Assay; assay type: biochemical; conditions: for inhibition at 10 µM: read-out: JAK2 JH1% Inhibition @ 10 μM
JAK2 kinase domain (JH1), sequence (O60674 849-1124): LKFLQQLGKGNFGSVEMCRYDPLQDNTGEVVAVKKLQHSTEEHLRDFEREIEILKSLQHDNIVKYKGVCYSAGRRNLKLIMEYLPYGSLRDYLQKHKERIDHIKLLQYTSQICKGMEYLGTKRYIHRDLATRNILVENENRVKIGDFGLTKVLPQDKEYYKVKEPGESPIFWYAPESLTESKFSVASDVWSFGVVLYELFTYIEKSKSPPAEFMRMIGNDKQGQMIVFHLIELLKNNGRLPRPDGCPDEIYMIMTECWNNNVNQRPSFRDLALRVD
How it was run: (§1)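 Each kinase domain is incubated with test compound at 10 μM. Activity is then measured radiometrically and expressed as percent inhibition relative to uninhibited enzyme.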

Tyk2 kinase domain (DH1) = Tyk2 kinase domain (DH1) (Homo sapiens (Human), UniProt P29597); assay: Tyk2 Radioactive Kinase Assay; assay type: biochemical; conditions: for inhibition at 10 µM: read-out: Tyk2 JH1% Inhibition @ 10 μM
Tyk2 kinase domain (DH1), sequence (P29597 897-1176): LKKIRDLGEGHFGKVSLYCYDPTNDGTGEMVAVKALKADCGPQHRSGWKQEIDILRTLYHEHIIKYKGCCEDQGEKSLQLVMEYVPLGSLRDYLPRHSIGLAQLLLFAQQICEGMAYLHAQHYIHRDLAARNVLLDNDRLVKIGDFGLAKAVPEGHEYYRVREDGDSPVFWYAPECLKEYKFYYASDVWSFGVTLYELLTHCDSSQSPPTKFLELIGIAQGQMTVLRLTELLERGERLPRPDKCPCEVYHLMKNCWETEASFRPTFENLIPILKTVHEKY
How it was run: as §1

[3] = molecular target: JAK2/JAK2 homdimeric complex (Homo sapiens (Human), UniProt O60674); assay: GM-CSF Induced pSTAT5 in Human PBMC; assay type: cell-based; conditions: GM-CSF 5 ng/mL for 20 minutes, pSTAT5 by MSD, read-out: PBMC_GMCSF_pSTAT5 IC50
JAK2/JAK2 homdimeric complex, sequence (O60674 whole entry): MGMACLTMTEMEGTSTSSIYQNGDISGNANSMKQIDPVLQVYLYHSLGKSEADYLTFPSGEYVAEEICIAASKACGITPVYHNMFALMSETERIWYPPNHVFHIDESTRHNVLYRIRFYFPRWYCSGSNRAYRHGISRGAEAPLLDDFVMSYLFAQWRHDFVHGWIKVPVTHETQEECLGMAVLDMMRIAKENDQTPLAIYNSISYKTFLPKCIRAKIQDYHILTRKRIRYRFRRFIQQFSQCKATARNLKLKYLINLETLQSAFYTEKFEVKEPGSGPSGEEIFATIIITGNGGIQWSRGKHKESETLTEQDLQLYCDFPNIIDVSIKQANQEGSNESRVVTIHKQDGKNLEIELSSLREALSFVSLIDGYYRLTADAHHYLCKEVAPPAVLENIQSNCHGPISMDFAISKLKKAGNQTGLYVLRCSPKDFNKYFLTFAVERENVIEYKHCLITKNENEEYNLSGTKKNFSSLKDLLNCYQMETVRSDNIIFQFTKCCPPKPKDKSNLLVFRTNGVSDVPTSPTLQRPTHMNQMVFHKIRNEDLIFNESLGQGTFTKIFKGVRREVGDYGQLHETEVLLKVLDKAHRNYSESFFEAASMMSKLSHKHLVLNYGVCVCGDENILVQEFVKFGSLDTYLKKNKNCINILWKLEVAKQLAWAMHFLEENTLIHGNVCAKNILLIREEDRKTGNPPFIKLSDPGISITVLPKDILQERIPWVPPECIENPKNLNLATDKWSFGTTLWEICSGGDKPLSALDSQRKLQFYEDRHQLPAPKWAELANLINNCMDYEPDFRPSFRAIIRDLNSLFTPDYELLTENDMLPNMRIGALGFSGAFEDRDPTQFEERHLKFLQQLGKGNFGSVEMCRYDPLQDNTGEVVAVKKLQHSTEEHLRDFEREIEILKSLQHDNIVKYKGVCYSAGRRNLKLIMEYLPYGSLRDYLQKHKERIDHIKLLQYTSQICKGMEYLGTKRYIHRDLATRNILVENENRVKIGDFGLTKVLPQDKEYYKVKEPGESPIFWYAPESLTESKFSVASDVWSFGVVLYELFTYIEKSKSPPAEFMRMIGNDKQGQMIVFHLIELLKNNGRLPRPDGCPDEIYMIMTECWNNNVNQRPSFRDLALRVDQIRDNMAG
JAK2/JAK2 homdimeric complex, sequence (P32927 17-897 partner): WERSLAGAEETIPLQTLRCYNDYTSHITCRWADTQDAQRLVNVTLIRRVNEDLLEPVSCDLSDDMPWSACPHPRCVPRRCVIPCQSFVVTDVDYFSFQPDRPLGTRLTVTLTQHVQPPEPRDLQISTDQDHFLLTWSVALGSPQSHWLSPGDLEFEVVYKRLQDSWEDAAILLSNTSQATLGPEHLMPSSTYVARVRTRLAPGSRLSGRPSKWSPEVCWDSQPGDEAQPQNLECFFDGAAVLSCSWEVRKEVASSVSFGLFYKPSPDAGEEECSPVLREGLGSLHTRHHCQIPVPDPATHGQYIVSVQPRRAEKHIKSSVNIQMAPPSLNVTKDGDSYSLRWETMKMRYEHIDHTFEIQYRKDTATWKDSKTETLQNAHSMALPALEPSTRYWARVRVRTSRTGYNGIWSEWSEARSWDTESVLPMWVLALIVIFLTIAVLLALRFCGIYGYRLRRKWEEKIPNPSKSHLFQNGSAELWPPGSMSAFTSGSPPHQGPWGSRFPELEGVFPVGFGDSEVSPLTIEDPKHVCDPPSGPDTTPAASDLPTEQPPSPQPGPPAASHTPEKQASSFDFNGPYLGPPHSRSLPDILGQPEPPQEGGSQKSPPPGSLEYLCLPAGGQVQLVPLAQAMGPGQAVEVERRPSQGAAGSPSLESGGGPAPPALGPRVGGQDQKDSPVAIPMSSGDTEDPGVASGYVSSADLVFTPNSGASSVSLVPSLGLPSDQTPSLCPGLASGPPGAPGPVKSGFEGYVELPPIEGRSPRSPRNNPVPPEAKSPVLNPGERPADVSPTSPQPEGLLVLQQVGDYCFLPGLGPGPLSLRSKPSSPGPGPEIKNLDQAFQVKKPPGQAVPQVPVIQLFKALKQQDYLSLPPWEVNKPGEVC

human TYK2 (JH2domain-pseudokinase), sequence (P29597 556-888): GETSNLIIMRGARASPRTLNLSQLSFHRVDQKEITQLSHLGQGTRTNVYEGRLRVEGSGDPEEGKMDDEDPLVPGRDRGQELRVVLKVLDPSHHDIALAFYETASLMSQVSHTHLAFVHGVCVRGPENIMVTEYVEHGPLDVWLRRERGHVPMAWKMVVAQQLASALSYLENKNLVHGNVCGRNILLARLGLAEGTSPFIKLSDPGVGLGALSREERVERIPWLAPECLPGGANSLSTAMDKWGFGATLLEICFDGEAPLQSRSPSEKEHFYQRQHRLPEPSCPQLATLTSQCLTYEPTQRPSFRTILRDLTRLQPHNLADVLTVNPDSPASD

Structure (SMILES) | Kd [1] | IC50 [2] | further results
CNc1cc(-c2cn(C(C)C)c3ncc(F)cc23)nc2c(C(=O)N[C@H]3CC[C@H]3O)cnn12 [I-1387] | 1 to 10 nM | < 100 nM | 
CNc1cc(-c2cn(CCCO)c3ncccc23)nc2c(C(=O)N[C@@H]3CC[C@H]3OC)cnn12 [I-1299] | < 0.2 nM | < 100 nM | 
CNc1cc(Nc2cccn([C@H]3CC[C@](C)(O)CC3)c2=O)nc2c(C(=O)NC3CC3)cnn12 [I-371] | < 0.2 nM | 100 to 500 nM | inhibition at 10 µM (JAK2 kinase domain (JH1); compound at 10 μM, ATP 10 μM): < 50%; inhibition at 10 µM (Tyk2 kinase domain (DH1); compound at 10 μM, ATP 10 μM): < 50%
CNc1cc(-c2cn([C@@H]3CCN(CCF)C3)c3ncccc23)nc2c(C(=O)N[C@@H]3C[C@@H]3F)cnn12 [I-1366] | 1 to 10 nM | < 100 nM | 
CNc1cc(Nc2cccc(C)c2Cl)nc2c(C(N)=O)cnn12 [I-14] | < 0.2 nM | < 100 nM | IC50 [3]: > 50000 nM
CNc1cc(-c2cn(CCCO)c3ncccc23)nc2c(C(=O)N[C@H]3CC[C@@H]3OC)cnn12 [I-1388] | 0.2 to 1 nM | < 100 nM | 
CNc1cc(-c2cn([C@H]3CCN(CCF)C3)c3ncccc23)nc2c(C(=O)N[C@@H]3C[C@@H]3F)cnn12 [I-1362] | 0.2 to 1 nM | < 100 nM | 
CNc1cc(Nc2cccn(-c3cccc(F)c3)c2=O)nc2c(C(=O)N[C@@H]3CC[C@H]3O)cnn12 [I-946] |  | < 100 nM | JAK2 JH1% Inhibition @ 10 μM (JAK2 kinase domain (JH1); 10 μM compound, 10 μM ATP): A (percent inhibition at 10 μM lower than 50); IC50 [3]: > 50000 nM; Tyk2 JH1% Inhibition @ 10 μM (Tyk2 kinase domain (DH1); 10 μM compound, 10 μM ATP): A (percent inhibition at 10 μM lower than 50)
CNc1cc(Nc2cccn([C@@H]3CCCN(CCF)C3)c2=O)nc2c(C(=O)N[C@H]3CC[C@@H]3OC)cnn12 [I-1382] | < 0.2 nM | < 100 nM | 
CNc1cc(-c2cn([C@H]3CCCOC3)c3ncccc23)nc2c(C(=O)N[C@H]3CC[C@@H]3OC)cnn12 [I-1283] | 1 to 10 nM | < 100 nM | 
[2H]C([2H])([2H])Oc1ncccc1Nc1cc(NC)n2ncc(C(=O)NC3CC4(COC4)C3)c2n1 [I-417, 5-((2-(methoxy-d3)pyridin-3-yl)amino)-7-(methylamino)-N-(2-oxaspiro[3.3]heptan-6-yl)pyrazolo[1,5-a]pyrimidine-3-carboxamide] |  | 100 to 500 nM | inhibition at 10 µM (JAK2 kinase domain (JH1); compound at 10 μM, ATP 10 μM): < 50%; IC50 [3]: > 50000 nM; inhibition at 10 µM (Tyk2 kinase domain (DH1); compound at 10 μM, ATP 10 μM): < 50%
CNc1cc(Nc2cccn([C@@H]3CCN(CCF)C3)c2=O)nc2c(C(=O)N[C@@H]3CC[C@H]3OC)cnn12 [I-1333] | 1 to 10 nM | < 100 nM | 
CNc1cc(Nc2cccn([C@@H]3CCCOC3)c2=O)nc2c(C(=O)NC3CC3)cnn12 [I-351] | < 0.2 nM | < 100 nM | inhibition at 10 µM (JAK2 kinase domain (JH1); compound at 10 μM, ATP 10 μM): < 50%; inhibition at 10 µM (Tyk2 kinase domain (DH1); compound at 10 μM, ATP 10 μM): < 50%
CNc1cc(Nc2cccn([C@H]3CCC[C@@H](O)C3)c2=O)nc2c(C(=O)N[C@H]3CC[C@@H]3OC)cnn12 [I-1296] | < 0.2 nM | < 100 nM | 
CNc1cc(Nc2cccn([C@@H]3CC[C@H]3O)c2=O)nc2c(C(=O)N[C@@H]3CC[C@H]3OC)cnn12 [I-1309] | < 0.2 nM | < 100 nM | 
CNc1cc(Nc2cccn(-c3nn(C)cc3C)c2=O)nc2c(C(=O)NC3CC3)cnn12 [I-404] | 0.2 to 1 nM | > 1000 nM | inhibition at 10 µM (JAK2 kinase domain (JH1); compound at 10 μM, ATP 10 μM): < 50%; inhibition at 10 µM (Tyk2 kinase domain (DH1); compound at 10 μM, ATP 10 μM): < 50%
CNc1cc(Nc2cccn([C@H]3CCC[C@H](OC)C3)c2=O)nc2c(C(=O)N[C@@H]3CC[C@H]3OC)cnn12 [I-1374] | 0.2 to 1 nM | < 100 nM | 
CNC(=O)c1occc1Nc1cc(NC)n2ncc(C(=O)N[C@H]3CC[C@@H]3OC)c2n1 [I-1323] | 1 to 10 nM | < 100 nM | 
CNc1cc(Nc2cccn([C@@H]3CCC[C@@H](OC)C3)c2=O)nc2c(C(=O)N[C@H]3CC[C@@H]3OC)cnn12 [I-1331] | 1 to 10 nM | < 100 nM | 
CNc1cc(Nc2cccn([C@H]3CC[C@@H]3O)c2=O)nc2c(C(=O)N[C@H]3CC[C@@H]3OC)cnn12 [I-1385] | 0.2 to 1 nM | < 100 nM | 
CNc1cc(Nc2cccn([C@H]3CCCN(CCF)C3)c2=O)nc2c(C(=O)N[C@@H]3C[C@@H]3F)cnn12 [I-900] | < 0.2 nM | < 100 nM | inhibition at 10 µM (JAK2 kinase domain (JH1); 10 μM compound, 10 μM ATP): < 50%; inhibition at 10 µM (Tyk2 kinase domain (DH1); 10 μM compound, 10 μM ATP): < 50%
CNc1cc(Nc2cccn(-c3ccc(F)cc3)c2=O)nc2c(C(N)=O)cnn12 [I-9] | < 0.2 nM | 100 to 500 nM | inhibition at 10 µM (JAK2 kinase domain (JH1); compound at 10 μM, ATP 10 μM): < 50%; inhibition at 10 µM (Tyk2 kinase domain (DH1); compound at 10 μM, ATP 10 μM): < 50%
